Data on 29 molecules can be found in patent publication US8946203B2, “Benzodioxane inhibitors of leukotriene production” (Boehringer Ingelheim International GmbH, priority 2012, dated 2015).

Where a name gives a salt, the structure may show the parent alone.

The target of this test is T1, human LTA4 hydrolase (Homo sapiens, UniProt P09960).
T1 sequence (P09960 1-611): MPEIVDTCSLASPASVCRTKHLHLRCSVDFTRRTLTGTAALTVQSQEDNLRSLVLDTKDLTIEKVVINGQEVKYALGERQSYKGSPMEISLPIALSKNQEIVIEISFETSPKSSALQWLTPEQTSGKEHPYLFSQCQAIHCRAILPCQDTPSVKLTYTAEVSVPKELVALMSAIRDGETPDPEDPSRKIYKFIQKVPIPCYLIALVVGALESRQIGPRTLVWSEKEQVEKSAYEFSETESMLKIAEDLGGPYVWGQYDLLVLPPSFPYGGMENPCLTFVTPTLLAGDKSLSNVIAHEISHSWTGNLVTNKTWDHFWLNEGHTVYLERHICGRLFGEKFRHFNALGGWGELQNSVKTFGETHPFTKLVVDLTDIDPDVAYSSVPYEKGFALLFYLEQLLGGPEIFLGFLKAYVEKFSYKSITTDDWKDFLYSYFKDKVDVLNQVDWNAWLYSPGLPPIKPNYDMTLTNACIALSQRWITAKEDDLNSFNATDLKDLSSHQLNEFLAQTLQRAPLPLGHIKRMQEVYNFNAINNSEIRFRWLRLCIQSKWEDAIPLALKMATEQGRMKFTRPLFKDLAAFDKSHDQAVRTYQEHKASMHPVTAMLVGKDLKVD
As to the kind of experiment: LTA4H Enzyme assay (cleavage of Arg-AMC, fluorescence). Format: biochemical. The settings on record: LTA4H Enzyme 1 nM, Arg-AMC substrate 50 μM, room temperature 1 h, fluorescence; read-out: IC50 values of LTA4H Enzyme assay. How it is done: The compounds of the invention are assessed for the ability to interact with human LTA4 hydrolase in an enzymatic assay that measures the ability of the enzyme to cleave the peptide bond of arginyl-aminomethylcoumarin (Arg-AMC). LTA4H Enzyme (1 nM final), Arg-AMC substrate (50 μM final), and compound are combined in a reaction buffer (50 mM Tris-HCl (pH 7.5), 100 mM KCl, 0.5% bovine serum albumin) at room temperature for 1 h. The formation of product is assessed by measuring the fluorescence of aminomethylcoumarin product (excitation wavelength 380 nm/emission wavelength 460 nm).
For `OCCC1CCN(Cc2ccc([C@H]3COc4ccccc4O3)cc2)CC1` [Example 70, 2-(1-{4-[(2S)-2,3-dihydro-1,4-benzodioxin-2-yl]benzyl}piperidin-4-yl)ethanol], the IC50 (usually the midpoint of a concentration-inhibition curve) was found to be 0.57 nM. In the case of `O=C(CNCc1ccc(C2COc3ccccc3O2)cc1)N1CCCC1` (racemic) [Example 12, 2-{[4-(2,3-dihydro-1,4-benzodioxin-2-yl)benzyl]amino}-1-(pyrrolidin-1-yl)ethanone] it was 10.2 nM. Take `N#CC1CCN(Cc2ccc([C@H]3COc4cccnc4O3)cc2)CC1` [Example 159, 1-{4-[(3S)-2,3-dihydro[1,4]dioxino[2,3-b]pyridin-3-yl]benzyl}piperidine-4-carbonitrile]: the IC50 was found to be 0.16 nM. As for `COC1CN(Cc2ccc([C@H]3COc4cccnc4O3)cc2)C1` [Example 166, (3S)-3-{4-[(3-methoxyazetidin-1-yl)methyl]phenyl}-2,3-dihydro[1,4]dioxino[2,3-b]pyridine], the half-inhibitory concentration (IC50) came to 0.68 nM.

As for `O=C(O)C1(NCc2ccc([C@H]3COc4ccccc4O3)cc2)CCCC1` [Example 59, 1-({4-[(2S)-2,3-dihydro-1,4-benzodioxin-2-yl]benzyl}amino)cyclopentane-carboxylic acid], the IC50 is 89.2 nM.

Consider `O=C(O)c1ccc2c(c1)CN(Cc1ccc([C@H]3COc4ccccc4O3)cc1)CC2` [Example 232, 2-{4-[(2S)-2,3-dihydro-1,4-benzodioxin-2-yl]benzyl}-1,2,3,4-tetrahydroisoquinoline-7-carboxylic acid], for which the IC50 was 2.75 nM. With `c1ccc2c(c1)OCC(c1ccc(CN3CCOCC3)cc1)O2` (racemic) [Example 2, 4-[4-(2,3-dihydro-1,4-benzodioxin-2-yl)benzyl]morpholine] the figure was 2.45 nM. With `CC1CCCN1Cc1ccc([C@H]2COc3ccccc3O2)cc1` (stereo partly drawn) [Example 77, 1-{4-[(2S)-2,3-dihydro-1,4-benzodioxin-2-yl]benzyl}-2-methylpyrrolidine] the figure was 0.18 nM; with `CC(C)(CN1CCCC1)NCc1ccc([C@H]2COc3cccnc3O2)cc1` [Example 157, N-{4-[(3S)-2,3-dihydro[1,4]dioxino[2,3-b]pyridin-3-yl]benzyl}-2-methyl-1-(pyrrolidin-1-yl)propan-2-amine], 0.18 nM. In the case of `O=C(O)C1CCN(Cc2ccc([C@H]3COc4cccnc4O3)cc2)CC1` [Example 189, 1-{4-[(3S)-2,3-dihydro[1,4]dioxino[2,3-b]pyridin-3-yl]benzyl}piperidine-4-carboxylic acid] it was 0.16 nM; in that of `O=C1CCC2(CCN(Cc3ccc([C@H]4COc5cccnc5O4)cc3)C2)N1` (stereo partly drawn) [Example 127, 7-{4-[(3S)-2,3-dihydro[1,4]dioxino[2,3-b]pyridin-3-yl]benzyl}-1,7-diazaspiro[4.4]nonan-2-one], 0.12 nM; in that of `O=C(O)[C@H]1CCCN(Cc2ccc([C@H]3COc4ccccc4O3)cc2)C1` [Example 20, (3S)-1-{4-[(2S)-2,3-dihydro-1,4-benzodioxin-2-yl]benzyl}piperidin-3-carboxylic acid], 1.3 nM. Turning to `CS(=O)(=O)NC1CCN(Cc2ccc([C@H]3COc4ccccc4O3)cc2)CC1` [Example 176, N-(1-{4-[(2S)-2,3-dihydro-1,4-benzodioxin-2-yl]benzyl}piperidin-4-yl)methanesulfonamide], the IC50 was found to be 0.24 nM.

For the molecule `FC1CCN(Cc2ccc(C3COc4ccccc4O3)cc2)CC1` (racemic) [Example 5, 1-[4-(2,3-dihydro-1,4-benzodioxin-2-yl)benzyl]-4-fluoropiperidine], the IC50 was 2.96 nM. As for `CC1(C(=O)O)CCN(Cc2ccc([C@H]3COc4cccnc4O3)cc2)CC1` [Example 228, 1-[(S)-4-(2,3-Dihydro-[1,4]dioxino[2,3-b]pyridin-3-yl)-benzyl]-4-methyl-piperidine-4-carboxylic acid formate salt], the IC50 came out at 0.61 nM. In the case of `O=C(O)c1cccc(CN2CCN(Cc3ccc([C@H]4COc5ccccc5O4)cc3)CC2)c1` [Example 239, 3-{4-[(S)-4-(2,3-Dihydro-benzo[1,4]dioxin-2-yl)-benzyl]-piperazin-1-ylmethyl}-benzoic acid] it was 0.15 nM; in that of `N#CCN1CCCC12CCN(Cc1ccc([C@H]3COc4ccccc4O3)cc1)C2` (stereo partly drawn) [Example 124, (7-{4-[(2S)-2,3-dihydro-1,4-benzodioxin-2-yl]benzyl}-1,7-diazaspiro[4.4]non-1-yl)acetonitrile], 2.45 nM. Consider `O[C@H]1CC[C@H](NCc2ccc([C@H]3COc4ccccc4O3)cc2)CC1` [Example 76, trans-4-({4-[(2S)-2,3-dihydro-1,4-benzodioxin-2-yl]benzyl}amino)cyclohexanol], for which the IC50 was 1.9 nM. As for `CNC(=O)C1CCN(Cc2ccc([C@H]3COc4ccccc4O3)cc2)CC1` [Example 179, 1-{4-[(2S)-2,3-dihydro-1,4-benzodioxin-2-yl]benzyl}-N-methylpiperidine-4-carboxamide], the IC50 worked out at 0.16 nM. As for `O=C(O)[C@H]1CC[C@@H](NCc2ccc([C@H]3COc4ccccc4O3)cc2)C1` [Example 191, (1S,3R)-3-({4-[(2S)-2,3-dihydro-1,4-benzodioxin-2-yl]benzyl}amino)cyclopentane-carboxylic acid], the half-inhibitory concentration (IC50) came to 1.62 nM. In the case of `O=C(O)C1CCN(Cc2ccc([C@@H]3COc4ccccc4O3)cc2)CC1` [Example 201, (R)-1-[4-(2,3-Dihydro-benzo[1,4]dioxin-2-yl)-benzyl]-piperidine-4-carboxylic acid] it was 1.59 nM; in that of `OC1CCN(Cc2ccc([C@@H]3COc4ccccc4O3)cc2)CC1` (single isomer, unassigned) [Example 193], 5.35 nM. In the case of `c1ccc2c(c1)OCC(c1ccc(CNC3CCCC3)cc1)O2` (racemic) [Example 41, N-[4-(2,3-dihydro-1,4-benzodioxin-2-yl)benzyl]cyclopentanamine] it was 3.71 nM; in that of `CC(C)(O)C1CCN(Cc2ccc(C3COc4ccccc4O3)cc2)CC1` (racemic) [Example 28, 2-{1-[4-(2,3-dihydro-1,4-benzodioxin-2-yl)benzyl]piperidin-4-yl}propan-2-ol], 3.4 nM. With `O=C1CCC2(CCN(Cc3ccc([C@H]4COc5ccccc5O4)cc3)C2)N1` (stereo partly drawn) [Example 117, 7-{4-[(2S)-2,3-dihydro-1,4-benzodioxin-2-yl]benzyl}-1,7-diazaspiro[4.4]nonan-2-one] the figure was 0.23 nM; with `O=C(NCCO)C1CCN(Cc2ccc([C@H]3COc4cccnc4O3)cc2)CC1` [Example 154, 1-{4-[(3S)-2,3-dihydro[1,4]dioxino[2,3-b]pyridin-3-yl]benzyl}-N-(2-hydroxyethyl)piperidine-4-carboxamide], 0.2 nM.

On to `O[C@@H]1CCN(Cc2ccc([C@H]3COc4ccccc4O3)cc2)C1` [Example 88, (3R)-1-{4-[(2S)-2,3-dihydro-1,4-benzodioxin-2-yl]benzyl}pyrrolidin-3-ol], for which the IC50 was found to be 0.54 nM. In the case of `Fc1ccc2c(c1)OC(c1ccc(CN3CCCC3)cc1)CO2` (centres unmarked) [Example 203, 1-[4-(7-Fluoro-2,3-dihydro-benzo[1,4]dioxin-2-yl)-benzyl]-pyrrolidine], the IC50 worked out at 2.94 nM. With `O=C(O)c1ccc(CC2CCN(Cc3ccc([C@H]4COc5ccccc5O4)cc3)CC2)cc1` [Example 231, 4-{1-[(S)-4-(2,3-Dihydro-benzo[1,4]dioxin-2-yl)-benzyl]-piperidin-4-ylmethyl}-benzoic acid], the IC50 was determined as 0.29 nM.
